The values that follow come from ChEMBL document CHEMBL5303573, “Mapping human microbiome drug metabolism by gut bacteria and their genes” (Nature, 2019).

Structures are written as SMILES. Non-standard residues stand in square brackets, D forms with d. Residues, ends and D or L forms follow the SMILES beside them. pGlu = O=C1CC[C@@H](C(=O)O)N1; Thz = O=C(O)[C@@H]1CSCN1

For one data set the following is noted: parabacteroides johnsonii, 12 h, 2 µM.
Description: The drug is tested on Parabacteroides johnsonii strain: DSM18315 for biotransformation. The drug concentrations were measured before and after a 12-h incubation by liquid-chromatography-coupled mass spectrometry (LC–MS)
With `CCN1CCCC1CNC(=O)c1cc(S(N)(=O)=O)ccc1OC` (centres undefined) [SULPIRIDE], the “Bacterial Biotransformation” value is reported as “Compound NOT metabolized”.

Consider `CN(CCOc1ccc(CC2SC(=O)NC2=O)cc1)c1ccccn1.O=C(O)/C=C\C(=O)O` (centres undefined) [ROSIGLITAZONE MALEATE], for which the “Bacterial Biotransformation” value is “Compound NOT metabolized”.

Regarding `CCCc1nn(C)c2c(=O)[nH]c(-c3cc(S(=O)(=O)N4CCN(C)CC4)ccc3OCC)nc12.O=C(O)CC(O)(CC(=O)O)C(=O)O` [SILDENAFIL CITRATE], the “Bacterial Biotransformation” value is “Compound NOT metabolized”.

As to `COc1ccccc1OCC(O)CN1CCN(CC(=O)Nc2c(C)cccc2C)CC1` (centres undefined) [RANOLAZINE], the “Bacterial Biotransformation” value is given as “Compound NOT metabolized”.

On to `O=c1n(CCCN2CCN(c3cccc(Cl)c3)CC2)nc2ccccn12` [TRAZODONE], for which the “Bacterial Biotransformation” value is on record as “Compound NOT metabolized”.

Take `COc1cc2nc(N3CCN(C(=O)C4CCCO4)CC3)nc(N)c2cc1OC` (centres undefined) [TERAZOSIN]: the “Bacterial Biotransformation” value was “Compound NOT metabolized”.

Turning to `CCc1cccc2c3c([nH]c12)C(CC)(CC(=O)O)OCC3` (centres undefined) [ETODOLAC], the “Bacterial Biotransformation” value is reported as “Compound NOT metabolized”.

For the compound `O=C1CC[C@@H](C(=O)N2CSC[C@H]2C(=O)O)N1` [PIDOTIMOD] ([pGlu]-[Thz]-OH), the “Bacterial Biotransformation” value was “Compound metabolized”.

Another data set is described as follows: The drug is tested on Clostridium ramosum strain: DSM1402 for biotransformation. The drug concentrations were measured before and after a 12-h incubation by liquid-chromatography-coupled mass spectrometry (LC–MS). The settings on record: thomasclavelia ramosa, 2 µM.
On to `COc1cc2nc(N(C)CCCNC(=O)C3CCCO3)nc(N)c2cc1OC` (centres undefined) [ALFUZOSIN], for which the “Bacterial Biotransformation” value is “Compound NOT metabolized”.

Regarding `CN1CC(=O)N2[C@H](c3ccc4c(c3)OCO4)c3[nH]c4ccccc4c3C[C@@H]2C1=O`, the “Bacterial Biotransformation” value is on record as “Compound NOT metabolized”.

Consider `O=C(CCCN1CCC2(CC1)C(=O)NCN2c1ccccc1)c1ccc(F)cc1` [SPIPERONE], for which the “Bacterial Biotransformation” value is recorded as “Compound NOT metabolized”.

With `CCN1CCCC1CNC(=O)c1cc(S(N)(=O)=O)ccc1OC` (centres undefined) [SULPIRIDE], the “Bacterial Biotransformation” value was “Compound NOT metabolized”.

As for `Br.CN1CCC[C@@H]1Cc1c[nH]c2ccc(CCS(=O)(=O)c3ccccc3)cc12` [ELETRIPTAN HYDROBROMIDE], the “Bacterial Biotransformation” value is on record as “Compound NOT metabolized”.

In the case of `O=C1CC[C@@H](C(=O)N2CSC[C@H]2C(=O)O)N1` [PIDOTIMOD] ([pGlu]-[Thz]-OH), the “Bacterial Biotransformation” value was “Compound NOT metabolized”.

Regarding `CCOC(=O)C1=C[C@]2(CC)CCCN3CCc4c(n1c1ccccc41)[C@@H]32` [VINPOCETINE], the “Bacterial Biotransformation” value was “Compound NOT metabolized”.

For another data set the following is noted: bifidobacterium adolescentis, 12 h, 2 µM.
Description: The drug is tested on Bifidobacterium adolescentis strain: ATCC 15703 for biotransformation. The drug concentrations were measured before and after a 12-h incubation by liquid-chromatography-coupled mass spectrometry (LC–MS)
On to `COc1cc2nc(N(C)CCCNC(=O)C3CCCO3)nc(N)c2cc1OC` (centres undefined) [ALFUZOSIN], for which the “Bacterial Biotransformation” value was “Compound NOT metabolized”.

For `CN1CC(=O)N2[C@H](c3ccc4c(c3)OCO4)c3[nH]c4ccccc4c3C[C@@H]2C1=O`, the “Bacterial Biotransformation” value is on record as “Compound NOT metabolized”.

Consider `O=C(CCCN1CCC2(CC1)C(=O)NCN2c1ccccc1)c1ccc(F)cc1` [SPIPERONE], for which the “Bacterial Biotransformation” value is listed as “Compound NOT metabolized”.

Regarding `CCN1CCCC1CNC(=O)c1cc(S(N)(=O)=O)ccc1OC` (centres undefined) [SULPIRIDE], the “Bacterial Biotransformation” value is “Compound NOT metabolized”.

Consider `CN(CCOc1ccc(CC2SC(=O)NC2=O)cc1)c1ccccn1.O=C(O)/C=C\C(=O)O` (centres undefined) [ROSIGLITAZONE MALEATE], for which the “Bacterial Biotransformation” value was “Compound NOT metabolized”.

With `CCCc1nn(C)c2c(=O)[nH]c(-c3cc(S(=O)(=O)N4CCN(C)CC4)ccc3OCC)nc12.O=C(O)CC(O)(CC(=O)O)C(=O)O` [SILDENAFIL CITRATE], the “Bacterial Biotransformation” value is on record as “Compound NOT metabolized”.

On to `COc1ccccc1OCC(O)CN1CCN(CC(=O)Nc2c(C)cccc2C)CC1` (centres undefined) [RANOLAZINE], for which the “Bacterial Biotransformation” value was “Compound NOT metabolized”.

Turning to `O=c1n(CCCN2CCN(c3cccc(Cl)c3)CC2)nc2ccccn12` [TRAZODONE], the “Bacterial Biotransformation” value is “Compound NOT metabolized”.

On to `COc1cc2nc(N3CCN(C(=O)C4CCCO4)CC3)nc(N)c2cc1OC` (centres undefined) [TERAZOSIN], for which the “Bacterial Biotransformation” value is “Compound NOT metabolized”.

With `O=P(O)(O)O.c1ccc(CN(CC2=NCCN2)c2ccccc2)cc1` [ANTAZOLINE PHOSPHATE], the “Bacterial Biotransformation” value was “Compound NOT metabolized”.

As for `CCc1cccc2c3c([nH]c12)C(CC)(CC(=O)O)OCC3` (centres undefined) [ETODOLAC], the “Bacterial Biotransformation” value was “Compound NOT metabolized”.

For `Br.CN1CCC[C@@H]1Cc1c[nH]c2ccc(CCS(=O)(=O)c3ccccc3)cc12` [ELETRIPTAN HYDROBROMIDE], the “Bacterial Biotransformation” value is given as “Compound NOT metabolized”.

Turning to `O=C1CC[C@@H](C(=O)N2CSC[C@H]2C(=O)O)N1` [PIDOTIMOD] ([pGlu]-[Thz]-OH), the “Bacterial Biotransformation” value is “Compound NOT metabolized”.

For the compound `CCOC(=O)C1=C[C@]2(CC)CCCN3CCc4c(n1c1ccccc41)[C@@H]32` [VINPOCETINE], the “Bacterial Biotransformation” value is “Compound NOT metabolized”.

A further data set is described as follows: The drug is tested on Eggerthella lenta strain: ATCC25559 for biotransformation. The drug concentrations were measured before and after a 12-h incubation by liquid-chromatography-coupled mass spectrometry (LC–MS). The settings on record: 2 µM.
Regarding `CCN1CCCC1CNC(=O)c1cc(S(N)(=O)=O)ccc1OC` (centres undefined) [SULPIRIDE], the “Bacterial Biotransformation” value is “Compound NOT metabolized”.

For `O=c1n(CCCN2CCN(c3cccc(Cl)c3)CC2)nc2ccccn12` [TRAZODONE], the “Bacterial Biotransformation” value is reported as “Compound NOT metabolized”.

With `COc1cc2nc(N3CCN(C(=O)C4CCCO4)CC3)nc(N)c2cc1OC` (centres undefined) [TERAZOSIN], the “Bacterial Biotransformation” value was “Compound NOT metabolized”.

`CCc1cccc2c3c([nH]c12)C(CC)(CC(=O)O)OCC3` (centres undefined) [ETODOLAC]: the “Bacterial Biotransformation” value was “Compound NOT metabolized”.

On to `CCOC(=O)C1=C[C@]2(CC)CCCN3CCc4c(n1c1ccccc41)[C@@H]32` [VINPOCETINE], for which the “Bacterial Biotransformation” value is “Compound NOT metabolized”.

The conditions of another data set: bacteroides fragilis, 12 h, 2 µM.
Description: The drug is tested on Bacteroides fragilis strain: 3397 (T10) for biotransformation. The drug concentrations were measured before and after a 12-h incubation by liquid-chromatography-coupled mass spectrometry (LC–MS)
Consider `CN1CC(=O)N2[C@H](c3ccc4c(c3)OCO4)c3[nH]c4ccccc4c3C[C@@H]2C1=O`, for which the “Bacterial Biotransformation” value was “Compound NOT metabolized”.

Consider `O=C(CCCN1CCC2(CC1)C(=O)NCN2c1ccccc1)c1ccc(F)cc1` [SPIPERONE], for which the “Bacterial Biotransformation” value is given as “Compound NOT metabolized”.

Take `CN(CCOc1ccc(CC2SC(=O)NC2=O)cc1)c1ccccn1.O=C(O)/C=C\C(=O)O` (centres undefined) [ROSIGLITAZONE MALEATE]: the “Bacterial Biotransformation” value is “Compound NOT metabolized”.

As to `CCCc1nn(C)c2c(=O)[nH]c(-c3cc(S(=O)(=O)N4CCN(C)CC4)ccc3OCC)nc12.O=C(O)CC(O)(CC(=O)O)C(=O)O` [SILDENAFIL CITRATE], the “Bacterial Biotransformation” value is “Compound NOT metabolized”.

Consider `COc1ccccc1OCC(O)CN1CCN(CC(=O)Nc2c(C)cccc2C)CC1` (centres undefined) [RANOLAZINE], for which the “Bacterial Biotransformation” value is “Compound NOT metabolized”.

With `O=c1n(CCCN2CCN(c3cccc(Cl)c3)CC2)nc2ccccn12` [TRAZODONE], the “Bacterial Biotransformation” value was “Compound NOT metabolized”.

Turning to `COc1cc2nc(N3CCN(C(=O)C4CCCO4)CC3)nc(N)c2cc1OC` (centres undefined) [TERAZOSIN], the “Bacterial Biotransformation” value is listed as “Compound NOT metabolized”.

`O=P(O)(O)O.c1ccc(CN(CC2=NCCN2)c2ccccc2)cc1` [ANTAZOLINE PHOSPHATE]: the “Bacterial Biotransformation” value was “Compound NOT metabolized”.

Regarding `CCc1cccc2c3c([nH]c12)C(CC)(CC(=O)O)OCC3` (centres undefined) [ETODOLAC], the “Bacterial Biotransformation” value was “Compound NOT metabolized”.

As for `Br.CN1CCC[C@@H]1Cc1c[nH]c2ccc(CCS(=O)(=O)c3ccccc3)cc12` [ELETRIPTAN HYDROBROMIDE], the “Bacterial Biotransformation” value is reported as “Compound NOT metabolized”.

Take `O=C1CC[C@@H](C(=O)N2CSC[C@H]2C(=O)O)N1` [PIDOTIMOD] ([pGlu]-[Thz]-OH): the “Bacterial Biotransformation” value is listed as “Compound metabolized”.

For the compound `CCOC(=O)C1=C[C@]2(CC)CCCN3CCc4c(n1c1ccccc41)[C@@H]32` [VINPOCETINE], the “Bacterial Biotransformation” value is listed as “Compound NOT metabolized”.

The next data set in a line: The drug is tested on Anaerotruncus colihominis strain: DSM17241 for biotransformation. The drug concentrations were measured before and after a 12-h incubation by liquid-chromatography-coupled mass spectrometry (LC–MS). Particulars: 2 µM.
Regarding `COc1cc2nc(N(C)CCCNC(=O)C3CCCO3)nc(N)c2cc1OC` (centres undefined) [ALFUZOSIN], the “Bacterial Biotransformation” value was “Compound NOT metabolized”.

With `CN1CC(=O)N2[C@H](c3ccc4c(c3)OCO4)c3[nH]c4ccccc4c3C[C@@H]2C1=O`, the “Bacterial Biotransformation” value was “Compound NOT metabolized”.

For `CCN1CCCC1CNC(=O)c1cc(S(N)(=O)=O)ccc1OC` (centres undefined) [SULPIRIDE], the “Bacterial Biotransformation” value is “Compound NOT metabolized”.

In the case of `CN(CCOc1ccc(CC2SC(=O)NC2=O)cc1)c1ccccn1.O=C(O)/C=C\C(=O)O` (centres undefined) [ROSIGLITAZONE MALEATE], the “Bacterial Biotransformation” value was “Compound NOT metabolized”.

For `CCCc1nn(C)c2c(=O)[nH]c(-c3cc(S(=O)(=O)N4CCN(C)CC4)ccc3OCC)nc12.O=C(O)CC(O)(CC(=O)O)C(=O)O` [SILDENAFIL CITRATE], the “Bacterial Biotransformation” value was “Compound NOT metabolized”.

In the case of `COc1ccccc1OCC(O)CN1CCN(CC(=O)Nc2c(C)cccc2C)CC1` (centres undefined) [RANOLAZINE], the “Bacterial Biotransformation” value is on record as “Compound NOT metabolized”.

Regarding `O=c1n(CCCN2CCN(c3cccc(Cl)c3)CC2)nc2ccccn12` [TRAZODONE], the “Bacterial Biotransformation” value was “Compound NOT metabolized”.

For the compound `COc1cc2nc(N3CCN(C(=O)C4CCCO4)CC3)nc(N)c2cc1OC` (centres undefined) [TERAZOSIN], the “Bacterial Biotransformation” value is on record as “Compound NOT metabolized”.

In the case of `O=P(O)(O)O.c1ccc(CN(CC2=NCCN2)c2ccccc2)cc1` [ANTAZOLINE PHOSPHATE], the “Bacterial Biotransformation” value is on record as “Compound NOT metabolized”.

In the case of `CCc1cccc2c3c([nH]c12)C(CC)(CC(=O)O)OCC3` (centres undefined) [ETODOLAC], the “Bacterial Biotransformation” value is recorded as “Compound NOT metabolized”.

On to `Br.CN1CCC[C@@H]1Cc1c[nH]c2ccc(CCS(=O)(=O)c3ccccc3)cc12` [ELETRIPTAN HYDROBROMIDE], for which the “Bacterial Biotransformation” value is recorded as “Compound NOT metabolized”.

Turning to `O=C1CC[C@@H](C(=O)N2CSC[C@H]2C(=O)O)N1` [PIDOTIMOD] ([pGlu]-[Thz]-OH), the “Bacterial Biotransformation” value was “Compound NOT metabolized”.

Regarding `CCOC(=O)C1=C[C@]2(CC)CCCN3CCc4c(n1c1ccccc41)[C@@H]32` [VINPOCETINE], the “Bacterial Biotransformation” value is reported as “Compound NOT metabolized”.
